The test system of experiment [1] is HeLa cells stably expressing HT-LC3B (LC3B^+ membranes including autophagosomes). In words: HT-LC3B MIL/MPL assay by high content microscopy (autophagic membrane sealing). It is filed as cell-based. The procedure:
HCM: MIL/MPL assay for assessment of autophagic membrane sealing. HaloTag-LC3B stable cell lines were seeded in 96 well plate at the density of 8,000 cells/well. After 18-24 h cells were induced for autophagy (EBSS for 90 min) or mitophagy (20 μM CCCP for 6 h). After induction, cells were incubated with Membrane Impermeant Ligand (MIL: Alexa Fluor-660 663Ex/690Em, 1 μM, Promega, G8471) prepared in 1×MAS buffer (220 mM mannitol, 70 mM sucrose, 10 mM KH2PO4, 5 mM MgCl2, 2 mM HEPES, 1 mM EGTA, from Sigma) containing XF-PMP (Agilent; 102504-100, 1.5 nM for Huh7 and 4 nM for HeLa cells) at 37° C. for 15 min. Cells were washed twice with 1×PBS and fixed with 4% paraformaldehyde (PFA, Sigma) in PBS for 5 min at RT. Cells were again washed twice with 1×PBS and incubated with Membrane-Permeant Ligand (MPL: TMR 5 μM, 555Ex/585Em, Promega, G8251) for 30 min at RT. Cells were washed once with 1×PBS and stained with Hoechst 33342 (Thermo Scientific, H3570, 1:1000) for 10 min at RT. Cells were washed twice and plate was scanned by High Content Microscopy (HCM) for automated image acquisition and quantification, iDEV software (Thermo) in 96-well plates^5. To test the role of mATG8s in autophagosome closure, we used the previously described strategy^41 employing stable cell lines expressing HT-LC3B, used to assess autophagosomal closure^41, 42, 45. We adapted this assay for high content microscopy (HCM) to allow unbiased operator-independent image collection, object identification and quantification, as previously established^30, 75 (FIG. 1C). […] The plates were scanned to quantify MPL^+ (sealed) and MIL^+ (unsealed) autophagosomes and any additional LC3B^+ structures, and data (quantitative HCM) presented as the number of MIL^+ or MPL^+ profiles/cell and their ratios (MIL/MPL) (FIG. 1D). MIL^+MPL^+ profiles were also observed but represented a very small fraction (<5%) and were not differentiated in quantifications.

In experiment [2] the test system is Huh7^WT and Huh7^ATG9AKO cells. In words: Western blot of Parkin and COX-II under CCCP-induced mitophagy. The format is cell-based. Particulars: BafA1 100 nM. From the text: 13A. Schematic representation of proximity biotinylation proteomics (process stages) for LC MS/MS identification of APEX2-ATG9A partners in cells subjected to EBSS-induced autophagy and CCCP-induced mitophagy. 13B, List of ATG9A's key ESCRTs interactors and their peptide counts. 13C, HeLa^WT and HeLa^ATG9AKO cell line stably expressing YFP-Parkin were induced for mitophagy by CCCP or Olygomycin A and Antimycin A (OA). HCM was used to quantify mitophagy by determining remaining mtDNA puncta per cell. Blue squares, HeLa^WT stably expressing YFP-Parkin; red squares, HeLa^ATG9AKO stably expressing YFP-Parkin. 13D, HCM images illustrating mtDNA (red mask) in HeLa^WT and HeLa^ATG9AKO cells stably expressing YFP-Parkin. 13E, Western blot analysis of Huh7^WT and Huh7^ATG9AKO cells, under control conditions (full medium) or subjected to CCCP-induced mitophagy. […] 13G, Western blot analysis of LC3B lipidation in control and CCCP-induced mitophagy condition in Huh7^ATG9AWT or Huh7^ATG9AKO. 13H, Quantification of LC3B dots in Huh7^WT and Huh7^ATG9AKO cells under control conditions or subjected to CCCP-induced mitophagy. […] 13J,13K Quantification of p62 and NDP52 levels in control and proteinase K-treated samples. Statistical significance was determined by one-way ANOVA followed by Tukey's multiple comparison test, P<0.01. […]
On the technique in general: Immunoblotting shows a protein as a band on a membrane.

SMILES strings stand for the structures. “Also recorded” adds a separate entry of the source.

For the compound `CO/C1=C\C(C)=C\[C@@H](C)[C@@H](O)[C@@H](C)C/C(C)=C/C=C/[C@H](OC)[C@@H]([C@@H](C)[C@@H](O)[C@H](C)[C@@]2(O)C[C@@H](O)[C@H](C)[C@@H](C(C)C)O2)OC1=O` [BafA1, Bafilomycin A1], the “MPL^+ (sealed) profiles/cell” value in experiment [1] (HeLa^HexaKO HT-LC3B cells, starved in EBSS 90 min, 100 nM BafA1) is recorded as “could not be enhanced by BafA1 treatment”; in experiment [1] (HeLa^HexaKO, HeLa^LC3TKO and HeLa^GABATKO HT-LC3B cells, EBSS, 100 nM BafA1) it was “no detectable further MPL^+ increase”; in experiment [1] (HeLa^WT HT-LC3B cells, starved in EBSS 90 min, 100 nM BafA1, vs EBSS alone), “further elevated; also recorded: further increased in the presence of BafA1”. For the same compound, in experiment [2], the “Parkin and COX-II levels (immunoblot)” value was “accumulation of Parkin and COX-II”.

For the origin of these results see patent US20250043285A1, “Mammalian ATG8 Proteins and ATG9A Direct Sealing of Autophagosomal Membranes” (UNM Rainforest Innovations, priority 2023, published 2025).
